Experimental data as given in US4272437A, “Antibacterial agents, and 4-thio azetidinone intermediates” (priority 1979, dated 1981).
In brackets after ≈: the same amount, converted by molar mass. Read-outs that look alike come from different tables or passages of the source.

Columns and labels:
[1] = system: Staph. aureus (Meth-Res) A-15097; assay: MIC, tube dilution, Staphylococcus aureus A15097 (Meth-Res); format: cell-based; conditions: Staphylococcus aureus, Staph. aureus A15097 (Meth-Res); overnight 37° C.; read-out: Minimum Inhibitory Concentration (M.I.C.)
Source text: (§1) Representative compounds of the present invention were subjected to in vitro antibiotic screening against a variety of microorganisms.

Ent. cloacae A-9659 = assay: MIC, tube dilution, Enterobacter cloacae A9659; format: cell-based; conditions: Enterobacter cloacae, A9659, Enterobacter cloacae A9659; overnight 37° C.; read-out: Minimum Inhibitory Concentration (M.I.C.)
Source text: as §1

Str. pneumoniae A-9585 = assay: MIC, tube dilution, Streptococcus pneumoniae A9585; format: cell-based; conditions: Streptococcus pneumoniae, A9585, Str. pneumoniae A9585; overnight 37° C., Nutrient Broth; read-out: Minimum Inhibitory Concentration (M.I.C.)
Source text: as §1

Proteus vulgaris A21559 = assay: MIC, tube dilution, Proteus vulgaris A21559; format: cell-based; conditions: Proteus vulgaris
Source text: as §1

Pr. mirabilis A-9900 = assay: MIC, tube dilution, Proteus mirabilis A9900; format: cell-based; conditions: Proteus mirabilis, A9900, Proteus mirabilis A9900; overnight 37° C.; read-out: Minimum Inhibitory Concentration (M.I.C.)
Source text: as §1

Staph. aureus A-9537 = assay: MIC, tube dilution, Staphylococcus aureus A9537; format: cell-based; conditions: Staphylococcus aureus, A9537, Staph. aureus A9537; overnight 37° C., Nutrient Broth; read-out: Minimum Inhibitory Concentration (M.I.C.)
Source text: as §1

Ps. aeruginosa A-21213 = assay: MIC, tube dilution, Pseudomonas aeruginosa A21213; format: cell-based; conditions: overnight 37° C., read-out: Minimum Inhibitory Concentration (M.I.C.)
Source text: as §1

E. coli A-20341-1 = assay: MIC, tube dilution, Escherichia coli A20341-1; format: cell-based
Source text: as §1

Str. faecalis A-20688 = assay: MIC, tube dilution, Streptococcus faecalis A20688; format: cell-based; conditions: Enterococcus faecalis, A20688, Str. faecalis A20688; overnight 37° C.; read-out: Minimum Inhibitory Concentration (M.I.C.)
Source text: as §1

Ser. marcescens A-20019 = assay: MIC, tube dilution, Serratia marcescens A20019; format: cell-based; conditions: Serratia marcescens, A20019, Serratia marcescens A20019; overnight 37° C.; read-out: Minimum Inhibitory Concentration (M.I.C.)
Source text: as §1

Proteus rettgeri A21203 = assay: MIC, tube dilution, Proteus rettgeri A21203; format: cell-based; conditions: Providencia rettgeri, overnight 37° C., read-out: Minimum Inhibitory Concentration (M.I.C.)
Source text: as §1

Str. pyogenes A-9604 = assay: MIC, tube dilution, Streptococcus pyogenes A9604; format: cell-based; conditions: Streptococcus pyogenes, A9604, Str. pyogenes A9604; overnight 37° C., Nutrient Broth; read-out: Minimum Inhibitory Concentration (M.I.C.)
Source text: as §1

[2] = system: Klebsiella species A20468; assay: MIC, tube dilution, Klebsiella species A20468; format: cell-based; conditions: Klebsiella species (K. pneumoniae) A20468; overnight 37° C.; read-out: Minimum Inhibitory Concentration (M.I.C.)
Source text: as §1

Ps. aeruginosa A-9843A = assay: MIC, tube dilution, Pseudomonas aeruginosa A9843A; format: cell-based; conditions: Pseudomonas aeruginosa, A9843A, read-out: Minimum Inhibitory Concentration (M.I.C.), Pseudomonas aeruginosa A9843A; overnight 37° C.
Source text: as §1

[3] = system: Staph. aureus (Pen-Res) A-9606; assay: MIC, tube dilution, Staphylococcus aureus A9606 (Pen-Res); format: cell-based; conditions: Staphylococcus aureus, Staph. aureus A9606 (Pen-Res); overnight 37° C.; read-out: Minimum Inhibitory Concentration (M.I.C.)
Source text: as §1

K. pneumoniae A-15130 = assay: MIC, tube dilution, Klebsiella pneumoniae A15130; format: cell-based; conditions: Klebsiella pneumoniae, A15130, K. pneumoniae A15130; overnight 37° C.; read-out: Minimum Inhibitory Concentration (M.I.C.)
Source text: as §1

Pr. morganii A-15153 = assay: MIC, tube dilution, Proteus morganii A15153; format: cell-based; conditions: Morganella morganii, A15153, Proteus morganii A15153; overnight 37° C.; read-out: Minimum Inhibitory Concentration (M.I.C.)
Source text: as §1

Ent. cloacae A-9656 = assay: MIC, tube dilution, Enterobacter cloacae A9656; format: cell-based; conditions: overnight 37° C., read-out: Minimum Inhibitory Concentration (M.I.C.)
Source text: as §1

E. coli A-15119 = assay: MIC, tube dilution, Escherichia coli A15119; format: cell-based; conditions: Escherichia coli, A15119, E. coli A15119; overnight 37° C.; read-out: Minimum Inhibitory Concentration (M.I.C.)
Source text: as §1

[4] = system: Staph. aureus A-9537 and 50% serum; assay: MIC, tube dilution, Staph. aureus A9537 + 50% serum; format: cell-based, Staphylococcus aureus; conditions: Staphylococcus aureus, overnight 37° C., read-out: Minimum Inhibitory Concentration (M.I.C.)
Source text: as §1

[5] = A21559, Proteus vulgaris A21559, overnight 37° C., read-out: Minimum Inhibitory Concentration (M.I.C.)
[6] = Pseudomonas aeruginosa, A21213, Pseudomonas aeruginosa A21213
[7] = Escherichia coli, A203411, E. coli A20341-1; overnight 37° C.; read-out: Minimum Inhibitory Concentration (M.I.C.)
[8] = A21203, Proteus rettgeri A21203
[9] = Enterobacter cloacae, A9656, Enterobacter cloacae A9656

SMILES	MIC [1] [µg/mL]	MIC (Ent. cloacae A-9659) [µg/mL]	MIC (Str. pneumoniae A-9585) [µg/mL]	MIC (Proteus vulgaris A21559; [5]) [µg/mL]	MIC (Pr. mirabilis A-9900) [µg/mL]	MIC (Staph. aureus A-9537) [µg/mL]	MIC (Ps. aeruginosa A-21213; [6]) [µg/mL]	MIC (E. coli A-20341-1; [7]) [µg/mL]	MIC (Str. faecalis A-20688) [µg/mL]	MIC (Ser. marcescens A-20019) [µg/mL]	MIC (Proteus rettgeri A21203; [8]) [µg/mL]	MIC (Str. pyogenes A-9604) [µg/mL]	MIC [2] [µg/mL]	MIC (Ps. aeruginosa A-9843A) [µg/mL]	MIC [3] [µg/mL]	MIC (K. pneumoniae A-15130) [µg/mL]	MIC (Pr. morganii A-15153) [µg/mL]	MIC (Ent. cloacae A-9656; [9]) [µg/mL]	MIC (E. coli A-15119) [µg/mL]	MIC [4] [µg/mL]	also measured
COCOC[C@@H](O)[C@H]1C(=O)N2C(C(=O)O)=C(C)S[C@H]12 (relative stereo) [Example 106, (1'S,5R,6S and 1'R,5S,6R) 6-(1'-Hydroxy-2'-methoxymethoxy-2'-ethyl)-2-methylpenem-3-carboxylic acid (Isomer B)]	> 63	> 63	32 (≈ 111 µM)	> 63	63 (≈ 218 µM)	63 (≈ 218 µM)	63 (≈ 218 µM)	63 (≈ 218 µM)	> 63	63 (≈ 218 µM)	63 (≈ 218 µM)	32 (≈ 111 µM)	> 63	63 (≈ 218 µM)	> 63	> 63	> 63	63 (≈ 218 µM)	63 (≈ 218 µM)	> 32	–
NC=NCC1=C(C(=O)O)N2C(=O)CC2S1 (centres unmarked) [16 (6)]	63 (≈ 277 µM)	63 (≈ 277 µM)	2 (≈ 8.8 µM)	32 (≈ 141 µM)	16 (≈ 70.4 µM)	4 (≈ 17.6 µM)	> 125	125 (≈ 550 µM)	125 (≈ 550 µM)	63 (≈ 277 µM)	32 (≈ 141 µM)	4 (≈ 17.6 µM)	> 125	32 (≈ 141 µM)	125 (≈ 550 µM)	125 (≈ 550 µM)	32 (≈ 141 µM)	63 (≈ 277 µM)	16 (≈ 70.4 µM)	63	–
N=C(Cc1ccccc1)NCC1=C(C(=O)O)N2C(=O)CC2S1 (centres unmarked) [Example 107]	> 63	> 63	0.5 (≈ 1.58 µM)	63 (≈ 199 µM)	63 (≈ 199 µM)	0.5 (≈ 1.58 µM)	63 (≈ 199 µM)	> 63	> 63	63 (≈ 199 µM)	63 (≈ 199 µM)	0.5 (≈ 1.58 µM)	> 63	63 (≈ 199 µM)	32 (≈ 101 µM)	> 63	63 (≈ 199 µM)	63 (≈ 199 µM)	63 (≈ 199 µM)	16	–
CC(N)C1=C(C(=O)O)N2C(=O)CC2S1 (centres unmarked) [Example 72, 2-(1'-Aminoethyl)-penem-3-carboxylic Acid]	63 (≈ 294 µM)	> 125	1 (≈ 4.67 µM)	–	125 (≈ 583 µM)	4 (≈ 18.7 µM)	–	–	> 125	> 125	–	2 (≈ 9.34 µM)	> 125	> 125	32 (≈ 149 µM)	> 125	> 125	–	125 (≈ 583 µM)	63	MIC (Proteus vulgaris A21559; A21559, read-out: Minimum Inhibitory Concentration (M.I.C.)): 125 µg/mL (≈ 583 µM); MIC (Ps. aeruginosa A-21213; Pseudomonas aeruginosa A21213): > 125 µg/mL; MIC (E. coli A-20341-1; Escherichia coli, A203411; E. coli A20341-1; overnight 37° C.; read-out: Minimum Inhibitory Concentration (M.I.C.)): > 125 µg/mL; MIC (Proteus rettgeri A21203; Proteus rettgeri A21203): 125 µg/mL (≈ 583 µM); MIC (Ent. cloacae A-9656; Enterobacter cloacae A9656): > 125 µg/mL
